Results taken from PMC12198282, “Application of a high-density microelectrode array assay using a 3D human iPSC-derived brain microphysiological system model for in vitro neurotoxicity screening of environmental compounds” (Archives of Toxicology, 2025).
Where two headings read alike, the source gives them in different places.

What was measured:
[1] = tested on: human iPSC-derived 3D BrainSpheres; experiment: BrainSphere MEA assay (HD-MEA, 13-day exposure, concentration-response); assay type: cell-based; details: for Difference of minimum potency between BrainSphere MEA assay and rNFA: 5th percentile of AC50 values by chemical, above 0.5 = more potent in the rNFA; for AC50: concentration at 50% maximal activity, Supplement 3 prints it also for curves with hit call 0; for Percent active: metrics active out of the total number of metrics screened; for Hits: total number of active endpoints out of 10 MEA activity metrics, 13-day exposure; for EC (benchmark response 1.349 SD): 312 h; on hitc Mean.Spheroid.Burst.Duration: key: 1 (active); 0 (inactive); on hitc Mean.Spheroid.Burst.ISI: key: 1 (active); 0 (inactive); on hitc Mean.Spheroid.Burst.Peak.Firing.Rate: key: 1 (active); 0 (inactive); on hitc Mean.Spheroid.Firing.Rate: key: 1 (active); 0 (inactive); on hitc Mean.Spheroid.IBI: key: 1 (active); 0 (inactive); on hitc Mean.Spheroid.Nonburst.ISI: key: 1 (active); 0 (inactive); on hitc Mean.Spheroid.Spikes.per.Burst.per.Electrode: key: 1 (active); 0 (inactive); on hitc Mean.Spheroid.Spikes.per.Burst: key: 1 (active); 0 (inactive); on hitc Spheroid.Burst.Frequency: key: 1 (active); 0 (inactive); on hitc Spheroid.Spike.Amplitude.90th.Percentile: key: 1 (active); 0 (inactive)
How it was run: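 7-week-differentiated BrainSpheres were plated on laminin/poly-D-lysine-coated HD-MEA chips and given 2 days to attach. Neural activity was recorded from the same regions of interest through a 13-day exposure, from day 0 onward. Ten network and general activity endpoints were derived per BrainSphere, with ≥3 biological replicates.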

[2] = tested on: 2D rat cortical cultures; details: cited from earlier work; for AC50: read-out: ac50 CCTE_Shafer_MEA_dev_LDH, rNFA mc5
[3] = AUC over 13-day exposure, tcplfit2
[4] = read-out: ac50 Mean.Spheroid.Burst.ISI
[5] = read-out: ac50 Mean.Spheroid.IBI
[6] = read-out: ac50 Mean.Spheroid.Spikes.per.Burst.per.Electrode
[7] = tcplfit2 BMD at benchmark response (1.349*SD of baseline controls)
[8] = tcplfit2 output ACC, activity cutoff in Supplemental Table 1
[9] = top of winning model, response normalized as percent of vehicle control, negative = decrease

Brc1ccc(Oc2ccc(Br)cc2Br)c(Br)c1 [BDE- 47]
EC50 ([1]; 5th percentile across active AC50 values per chemical, read-out: Minimum potency): 8.22 µM
Difference of minimum potency between BrainSphere MEA assay and rNFA [1]: more than 0.5 log10 µM
hitc Mean.Spheroid.Burst.Duration [1, 3]: 1
hitc Mean.Spheroid.Burst.ISI [1, 3]: 1
hitc Mean.Spheroid.Burst.Peak.Firing.Rate [1, 3]: 1
hitc Mean.Spheroid.Firing.Rate [1, 3]: 1
hitc Mean.Spheroid.IBI [1, 3]: 0
hitc Mean.Spheroid.Nonburst.ISI [1, 3]: 0
hitc Mean.Spheroid.Spikes.per.Burst [1, 3]: 1
hitc Mean.Spheroid.Spikes.per.Burst.per.Electrode [1, 3]: 1
hitc Spheroid.Burst.Frequency [1, 3]: 1
hitc Spheroid.Spike.Amplitude.90th.Percentile [1, 3]: 1
AC50 ([1]; listed as BDE-47, read-out: ac50 Mean.Spheroid.Burst.Duration): 14.4 µM
AC50 ([1]; listed as BDE-47, read-out: ac50 Mean.Spheroid.Burst.Peak.Firing.Rate): 9.74 µM
AC50 ([1]; listed as BDE-47, read-out: ac50 Mean.Spheroid.Firing.Rate): 7.84 µM
AC50 ([1]; listed as BDE-47, read-out: ac50 Spheroid.Burst.Frequency): 8.92 µM
AC50 ([1]; listed as BDE-47, read-out: ac50 Spheroid.Spike.Amplitude.90th.Percentile): 13.4 µM
AC50 ([1]; listed as BDE−47, read-out: ac50 Mean.Spheroid.Burst.Duration): 14 µM
AC50 ([1]; listed as BDE−47, read-out: ac50 Mean.Spheroid.Burst.Peak.Firing.Rate): 9.7 µM
AC50 ([1]; listed as BDE−47, read-out: ac50 Mean.Spheroid.Firing.Rate): 7.8 µM
AC50 ([1]; listed as BDE−47, read-out: ac50 Spheroid.Burst.Frequency): 8.9 µM
AC50 ([1]; listed as BDE−47, read-out: ac50 Spheroid.Spike.Amplitude.90th.Percentile): 13 µM
AC50 [1, 4]: 13.4 µM
AC50 [1, 5]: 45 µM
AC50 ([1]; read-out: ac50 Mean.Spheroid.Spikes.per.Burst): 14.3 µM
AC50 [1, 6]: 8.93 µM
EC50 ([1]; mean across active AC50 values per chemical, read-out: Mean potency): 11.4 µM
Percent active [1]: 80%
BMD Mean.Spheroid.Burst.Duration [1, 7]: 8.9 µM
BMD Mean.Spheroid.Burst.ISI [1, 7]: 7.8 µM
BMD Mean.Spheroid.Burst.Peak.Firing.Rate [1, 7]: 7.1 µM
BMD Mean.Spheroid.Firing.Rate [1, 7]: 7.9 µM
BMD Mean.Spheroid.IBI [1, 7]: 34 µM
BMD Mean.Spheroid.Nonburst.ISI [1, 7]: 48 µM
BMD Mean.Spheroid.Spikes.per.Burst [1, 7]: 12 µM
BMD Mean.Spheroid.Spikes.per.Burst.per.Electrode [1, 7]: 7 µM
BMD Spheroid.Burst.Frequency [1, 7]: 10 µM
BMD Spheroid.Spike.Amplitude.90th.Percentile [1, 7]: 6.7 µM
ACC Mean.Spheroid.Burst.Duration [1, 8]: 7.9 µM
ACC Mean.Spheroid.Burst.ISI [1, 8]: 4.8 µM
ACC Mean.Spheroid.Burst.Peak.Firing.Rate [1, 8]: 6.6 µM
ACC Mean.Spheroid.Firing.Rate [1, 8]: 11 µM
ACC Mean.Spheroid.IBI [1, 8]: 50 µM
ACC Mean.Spheroid.Nonburst.ISI [1, 8]: 55 µM
ACC Mean.Spheroid.Spikes.per.Burst [1, 8]: 17 µM
ACC Mean.Spheroid.Spikes.per.Burst.per.Electrode [1, 8]: 8.2 µM
ACC Spheroid.Burst.Frequency [1, 8]: 8.5 µM
ACC Spheroid.Spike.Amplitude.90th.Percentile [1, 8]: 9.5 µM
Top Mean.Spheroid.Burst.Duration [1, 9]: −93
Top Mean.Spheroid.Burst.ISI [1, 9]: −93
Top Mean.Spheroid.Burst.Peak.Firing.Rate [1, 9]: −93
Top Mean.Spheroid.Firing.Rate [1, 9]: −92
Top Mean.Spheroid.IBI [1, 9]: −81
Top Mean.Spheroid.Nonburst.ISI [1, 9]: −74
Top Mean.Spheroid.Spikes.per.Burst [1, 9]: −93
Top Mean.Spheroid.Spikes.per.Burst.per.Electrode [1, 9]: −92
Top Spheroid.Burst.Frequency [1, 9]: −95
Top Spheroid.Spike.Amplitude.90th.Percentile [1, 9]: −22
Hits [1]: 8
hitc CCTE_Shafer_MEA_dev_LDH ([2]; rNFA mc5 hit call, cytotoxicity LDH): 1
AC50 ([2]; cytotoxicity LDH): 12.3 µM

ClC1=C(Cl)[C@]2(Cl)[C@@H]3[C@@H]4C[C@@H]([C@H]5O[C@@H]45)[C@@H]3[C@@]1(Cl)C2(Cl)Cl [Dieldrin]
Difference of minimum potency between BrainSphere MEA assay and rNFA [1]: more than 0.5 log10 µM
hitc Mean.Spheroid.Burst.ISI [1, 3]: 1
hitc Mean.Spheroid.Burst.Peak.Firing.Rate [1, 3]: 1
hitc Mean.Spheroid.Firing.Rate [1, 3]: 1
hitc Mean.Spheroid.IBI [1, 3]: 1
hitc Mean.Spheroid.Nonburst.ISI [1, 3]: 0
hitc Mean.Spheroid.Spikes.per.Burst [1, 3]: 1
hitc Mean.Spheroid.Spikes.per.Burst.per.Electrode [1, 3]: 1
hitc Spheroid.Burst.Frequency [1, 3]: 1
hitc Spheroid.Spike.Amplitude.90th.Percentile [1, 3]: 1
EC50 ([1]; Homo sapiens, 5th percentile across active AC50 values per chemical, read-out: Minimum potency): 9.51 µM
EC (benchmark response 1.349 SD) ([1]; Homo sapiens, tcplfit2 BMD at benchmark response (1.349*SD of baseline controls), read-out: BMD Mean.Spheroid.Burst.ISI): 9.9 µM
EC (benchmark response 1.349 SD) ([1]; Homo sapiens, tcplfit2 BMD at benchmark response (1.349*SD of baseline controls), read-out: BMD Mean.Spheroid.Nonburst.ISI): 45 µM
AC50 ([1]; Homo sapiens, read-out: ac50 Mean.Spheroid.Burst.Duration): 13 µM
AC50 ([1]; Homo sapiens, read-out: ac50 Mean.Spheroid.Burst.ISI): 12 µM
AC50 ([1]; Homo sapiens, read-out: ac50 Mean.Spheroid.Burst.Peak.Firing.Rate): 11.7 µM
AC50 ([1]; Homo sapiens, read-out: ac50 Mean.Spheroid.Firing.Rate): 9.5 µM
AC50 ([1]; Homo sapiens, read-out: ac50 Mean.Spheroid.IBI): 28 µM
AC50 ([1]; Homo sapiens, read-out: ac50 Mean.Spheroid.Nonburst.ISI): 45 µM
AC50 ([1]; Homo sapiens, read-out: ac50 Mean.Spheroid.Spikes.per.Burst): 12.3 µM
AC50 ([1]; Homo sapiens, read-out: ac50 Mean.Spheroid.Spikes.per.Burst.per.Electrode): 11 µM
AC50 ([1]; Homo sapiens, read-out: ac50 Spheroid.Burst.Frequency): 9.6 µM
AC50 ([1]; Homo sapiens, read-out: ac50 Spheroid.Spike.Amplitude.90th.Percentile): 21 µM
EC50 ([1]; Homo sapiens, mean across active AC50 values per chemical, read-out: Mean potency): 14.3 µM
AC50 ([1]; read-out: ac50 Mean.Spheroid.Burst.Duration): 12.9 µM
AC50 [1, 4]: 12.2 µM
AC50 ([1]; read-out: ac50 Mean.Spheroid.Firing.Rate): 9.45 µM
AC50 [1, 5]: 28.2 µM
AC50 [1, 6]: 11.2 µM
AC50 ([1]; read-out: ac50 Spheroid.Burst.Frequency): 9.6 µM
AC50 ([1]; read-out: ac50 Spheroid.Spike.Amplitude.90th.Percentile): 20.8 µM
Percent active [1]: 90%
BMD Mean.Spheroid.Burst.Peak.Firing.Rate [1, 7]: 9.9 µM
BMD Mean.Spheroid.Firing.Rate [1, 7]: 9.3 µM
BMD Mean.Spheroid.IBI [1, 7]: 27 µM
BMD Mean.Spheroid.Spikes.per.Burst [1, 7]: 11 µM
BMD Mean.Spheroid.Spikes.per.Burst.per.Electrode [1, 7]: 9.9 µM
BMD Spheroid.Burst.Frequency [1, 7]: 9.8 µM
BMD Spheroid.Spike.Amplitude.90th.Percentile [1, 7]: 17 µM
ACC Mean.Spheroid.Burst.ISI [1, 8]: 8.4 µM
ACC Mean.Spheroid.Burst.Peak.Firing.Rate [1, 8]: 9.6 µM
ACC Mean.Spheroid.Firing.Rate [1, 8]: 11 µM
ACC Mean.Spheroid.IBI [1, 8]: 28 µM
ACC Mean.Spheroid.Nonburst.ISI [1, 8]: 52 µM
ACC Mean.Spheroid.Spikes.per.Burst [1, 8]: 13 µM
ACC Mean.Spheroid.Spikes.per.Burst.per.Electrode [1, 8]: 10 µM
ACC Spheroid.Burst.Frequency [1, 8]: 9.2 µM
ACC Spheroid.Spike.Amplitude.90th.Percentile [1, 8]: 20 µM
Hits [1]: 9
hitc CCTE_Shafer_MEA_dev_LDH [2]: 1
AC50 ([2]; cytotoxicity LDH): 11.3 µM
